# Legend:
# BxPC-3 cells = assay: Anti-proliferative toxicity of C63 in tumor cell lines (CCK8): BxPC-3; format: cell-based; conditions: Homo sapiens, 72 h, 3 days, read-out: Inhibition rate
# Description: (§1) Example 83: Detection of Anti-Proliferative Toxicity of C63 in Some Tumor Cell Lines
# (§2) BxPC-3 cells (purchased from the Cell Bank of the Chinese Academy of Sciences, Cat. No. TCHu12) were subcultured in a culture medium (RPMI-1640 medium+1% penicillin-streptomycin dual-antibiotic solution+10% fetal bovine serum) in an incubator at 5% carbon dioxide and 37° C.
# BxPC-3 cells were seeded at 3000 cells/well (90 μL) on a 96-well plate and cultured for 24 h.
# (§3) 10 mM compound stock solutions were prepared in DMSO.
# (§4) The compound stock solution was diluted with DMSO to give DMSO solutions 1-9 at concentrations of 0 μM, 2500 μM, 500 μM, 100 μM, 20 μM, 4 μM, 0.8 μM, 0.16 μM, and 0.032 μM.
# (§5) 2 μL of each of solutions 1-9 was added to 98 μL of the medium to give mixed solutions 11-19 of the compound and the medium.
# (§6) 10 μL of each of solutions 11-19 was added to the above cell seed solution to give a total volume of 100 μL (90 μL+10 μL).
# (§7) The concentrations of the compound in the wells were 0 μM, 5.0 μM, 1.0 μM, 0.2 μM, 0.04 μM, 0.008 μM, 0.0016 μM, 0.00032 μM, and 0.000064 μM. All concentrations were in triplicate.
# (§8) After the above-treated cells were cultured for 3 days, 10 μL of the CCK8 solution (DOJINDO, Cat. No. PF725) was added to each well. The plate was incubated in an incubator at 37° C. for 1-4 h and then detected on a microplate reader for the reading at 450 nm.
# MCF-7 cells = assay: Anti-proliferative toxicity of C63 in tumor cell lines (CCK8): MCF-7; format: cell-based; conditions: Homo sapiens, MCF7, 72 h, 3 days, read-out: Inhibition rate
# Description: as §1
# as §2, with “MCF-7” for “BxPC-3”, “SCSP-531)” for “TCHu12)”, “(MEM” for “(RPMI-1640”, “serum+0.01 mg/mL recombinant human insulin)” for “serum)”
# MCF-7 cells were seeded at 5000 cells/well (90 μL) on a 96-well plate and cultured for 24 h.
# as §3, §4, §5, §6, §7, §8
compound,measurement,setting,value
"C[C@]12C=CC(=O)N[C@@H]1CC[C@@H]1[C@@H]2CC[C@]2(C)[C@@H](C(=O)Nc3cccc(N[C@@H]4CCC[C@@H](Nc5cccc6c5C(=O)N([C@H]5CCC(=O)NC5=O)C6=O)C4)c3)CC[C@@H]12 [C63, N-(3-(N—(N-(4-(2-(3S-(2,6-dioxopiperidine))-isoindole-1,3-dione))-1R,3R-cyclohexanediamine))phenyl)-3-oxo-4-aza-5α-androst-1-ene-17β-carboxamide]",inhibition at 64 pM,BxPC-3 cells; 0.000064 μM,3.64%
same,inhibition at 0.00032 µM,BxPC-3 cells; 0.000320 μM,22.6%
same,inhibition at 0.0016 µM,BxPC-3 cells; 0.001600 μM,56.5%
same,inhibition at 0.008 µM,BxPC-3 cells; 0.008000 μM,68.2%
same,inhibition at 0.04 µM,BxPC-3 cells; 0.040000 μM,71.6%
same,inhibition at 0.2 µM,BxPC-3 cells; 0.200000 μM,72.9%
same,inhibition at 1 µM,BxPC-3 cells; 1.000000 μM,76.5%
same,inhibition at 5 µM,BxPC-3 cells; 5.000000 μM,80.2%
same,inhibition at 64 pM,MCF-7 cells; 0.000064 μM,6.61%
same,inhibition at 0.00032 µM,MCF-7 cells; 0.000320 μM,14.5%
same,inhibition at 0.0016 µM,MCF-7 cells; 0.001600 μM,36.8%
same,inhibition at 0.008 µM,MCF-7 cells; 0.008000 μM,46%
same,inhibition at 0.04 µM,MCF-7 cells; 0.040000 μM,50.2%
same,inhibition at 0.2 µM,MCF-7 cells; 0.200000 μM,54.9%
same,inhibition at 1 µM,MCF-7 cells; 1.000000 μM,57.6%
same,inhibition at 5 µM,MCF-7 cells; 5.000000 μM,61.4%

# — patent US20250213701A1, “MEDICAMENT FOR TREATING HUMAN TUMOR BASED ON ERF3A-TARGETING PROTEOLYSIS MECHANISM” (SUZHOU DEGEN BIO-MEDICAL CO., LTD., priority 2022, published 2025)
